Experimental data taken from PubChem BioAssay (NCI).
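Values below derive from 48-hour exposures of cells grown in 96-well plates, with endpoints linearly interpolated between the two concentrations bracketing the appropriate inhibition level. At the GI50, growth is halved. TGI denotes the concentration required for complete inhibition of growth.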

Tests used:
Experiment in all cases: DTP human tumour cell line panel, 48 h
[1] = tested on: UACC-257 melanoma
[2] = tested on: MDA-MB-435
[3] = tested on: EKVX NSCLC
[4] = tested on: OVCAR-5 ovarian
[5] = tested on: SK-MEL-5 melanoma
[6] = tested on: HCC-2998 colon
[7] = tested on: SNB-19 CNS
[8] = tested on: RPMI-8226 leukemia
[9] = tested on: NCI-H460 lung
[10] = tested on: OVCAR-3 ovarian

| Compound | GI50 [1] | TGI [1] | GI50 [2] | TGI [2] | GI50 [3] | TGI [3] | GI50 [4] | TGI [4] | GI50 [5] | TGI [5] | GI50 [6] | TGI [6] | GI50 [7] | TGI [7] | GI50 [8] | TGI [8] | GI50 [9] | TGI [9] | GI50 [10] | TGI [10] |
| --- | --- | --- | --- | --- | --- | --- | --- | --- | --- | --- | --- | --- | --- | --- | --- | --- | --- | --- | --- | --- |
| CCCN(CCS(C)(=O)=O)Cc1ccc(-c2ccc3ncnc(Nc4ccc(OCc5cccc(F)c5)c(Cl)c4)c3c2)o1 | > 25 µM | > 25 µM | > 25 µM | > 25 µM | 0.195 µM | > 25 µM | > 25 µM | > 25 µM | > 14.1 µM | > 25 µM | > 25 µM | > 25 µM | > 25 µM | > 25 µM | > 20.8 µM | > 25 µM | > 25 µM | > 25 µM | > 22.9 µM | > 25 µM |
| COc1cc2c(cc1C1COc3cc4occc4cc3C1=O)OCO2 (centres undefined) |  | > 100 µM |  | > 100 µM |  | > 100 µM |  | > 100 µM |  | > 100 µM |  | > 100 µM |  | > 100 µM |  | 30.1 µM |  |  |  | > 100 µM |
| O=C(OCc1ccc2ccccc2n1)c1cn(C2CC2)c2cc(N3CCN(Cc4ccc5ccccc5n4)CC3)c(F)cc2c1=O | > 94.2 µM | > 100 µM | 39.4 µM | > 100 µM | 29.6 µM | > 100 µM | > 81.5 µM | > 100 µM | 20.1 µM | 62.2 µM | 34 µM | > 100 µM | > 81.6 µM | > 100 µM | > 36.3 µM | > 64.2 µM | 39.3 µM | > 100 µM | 44.9 µM | > 100 µM |
| COC1C=COC2(C)Oc3c(C)c(O)c4c(c3C2=O)/C(=N/C2CCC(O)OC2C)C=C(NC(=O)/C(C)=C\C(=O)C2CC2C(O)C(C)C(O)C(C)C(OC(C)=O)C1C)C4=O (centres undefined) |  | 5.98 µM |  | 3.64 µM |  | 8.75 µM |  | 8.45 µM |  | 4.97 µM |  | 6.88 µM |  | 11.6 µM |  | 5.74 µM |  | 11.5 µM |  | 5.21 µM |
| N#CC1(C(N)=O)C(c2ccc(Cl)cc2)CC(=O)CC1c1ccc(Cl)cc1 (centres undefined) | 17.5 µM | 36 µM | 16.3 µM | 33.2 µM | 15.5 µM | 32.7 µM | 16.4 µM | 33.1 µM | 17.4 µM | 31.1 µM | 14.8 µM | 29.9 µM | 17.7 µM | 33.5 µM | 18.1 µM | 50.7 µM | 17.4 µM | 33.4 µM | 15.8 µM | 33.4 µM |
| O=C(/C=C/c1ccccc1)CCN1CCOCC1 |  | 21.3 µM |  | 30.9 µM |  | 30.6 µM |  | 27.1 µM |  | 33.5 µM |  | 38 µM |  | 39.9 µM |  | 7.54 µM |  | 35.8 µM |  | 33.3 µM |
| N#Cc1c(N2CCOCC2)nc(=S)[nH]c1-c1ccco1 | 22.4 µM | > 100 µM | 15.9 µM | > 100 µM | 5.99 µM | 78.7 µM | 4.18 µM | 88.3 µM | 5.06 µM | > 100 µM | 25.5 µM | > 100 µM | 26 µM | > 100 µM | 1.58 µM | 16.4 µM | 4.4 µM | > 100 µM | 7.93 µM | 49.8 µM |
